Measured values from patent publication US11903955B2, “Methods of treating heart failure with reduced ejection fraction” (ASTRAZENECA AB, priority 2019, dated 2024).
Like-named read-outs stand apart in the source and are kept apart here.

System: patients with chronic heart failure with reduced ejection fraction (LVEF ≤40%)
Source text: Eligibility requirements included an age of at least 18 years, New York Heart Association (NYHA) class II, III, or IV symptoms, and an ejection fraction of 40% or less. […] Patients with atrial fibrillation or atrial flutter on their baseline electrocardiogram were required to have a NT-proBNP level of at least 900 pg/mL, irrespective of history of heart failure hospitalization. Patients were required to receive standard drug and device therapy for heart failure including an angiotensin-converting enzyme (ACE) inhibitor, angiotensin receptor blocker (ARB), or sacubitril/valsartan; a beta-blocker, unless contraindicated or not tolerated, and a mineralocorticoid receptor (MR) […], if considered appropriate. Doses were required to be individually optimized, in accordance with the targets recommended in guidelines, and stable for at least 4 weeks (excepting diuretics, which could be dosed flexibly). Investigators were advised that patients with type 2 diabetes should continue to take their glucose-lowering therapies, but these could be adjusted as required. Specifically, the protocol stated that the dose of insulin, sulfonylurea treatment, or both, could be reduced to minimize the risk of hypoglycemia, for example in patients with a baseline hemoglobin A1C (HbA1c) level below 7%.
All the patients provided written informed consent and entered a 14-day enrollment period during which the trial inclusion and exclusion criteria were checked and baseline information gathered, including findings from clinical examination and laboratory measurements. […] Investigators used an interactive voice or web response system to obtain treatment assignment. Randomization was stratified based on a diagnosis of type 2 diabetes, defined as either an established diagnosis or a HbA1c level of 6.5% or greater (≥48 mmol/mol) confirmed in a central laboratory at screening. Patients were evaluated at 14 days and 60 days after randomization, with a focus on assessment of heart failure and volume status, adverse events, and checking renal function and potassium. Further study visits took place at 4 months and at 4-month intervals thereafter. The protocol required that study drug be permanently discontinued if pregnancy or diabetic ketoacidosis occurred.
The primary outcome was a composite of a first episode of worsening heart failure or death from cardiovascular causes. An episode of worsening heart failure was either an unplanned hospitalization for heart failure or an urgent heart failure visit requiring intravenous therapy.^14 The first of the secondary outcomes was the composite of heart failure hospitalization or cardiovascular death.
Outcomes were adjudicated by a clinical-end-points committee, blinded to treatment assignment, according to prespecified criteria.
Using a two-sided alpha of 5%, we calculated that 844 primary endpoints would provide a statistical power of 90% for the test of the hypothesis. With an expected annual event rate of 11% in the placebo treatment group, approximately 4500 patients were estimated to provide the required number of primary events, based on an anticipated recruitment period of 18 months and an average follow-up period of approximately 24 months. A closed testing procedure was used, including a prespecified hierarchical testing of the primary and secondary endpoints in the order specified above. Type I error was controlled at a two-sided 0.0499 alpha level for multiplicity across primary and secondary endpoints and taking account of one interim efficacy analysis.
Data from all randomly assigned patients were included in the analyses of the primary and secondary outcomes, according to the intention-to-treat principle. Baseline characteristics were summarized as means and standard deviations, medians and inter-quartile ranges, or percentages.

CCOc1ccc(Cc2cc([C@@H]3O[C@H](CO)[C@@H](O)[C@H](O)[C@H]3O)ccc2Cl)cc1 [Dapagliflozin, dapagliflozin]
Cardiovascular death or hospitalization for heart failure, No. (%) (No T2DM (N = 1298)): 169 (13.0) No. (%)
Cardiovascular death or hospitalization for heart failure, Subjects with Event/100 Patient-Yr (No T2DM (N = 1298)): 9.1 Event/100 Patient-Yr
Cardiovascular death, No. (%) (No T2DM (N = 1298)): 106 (8.2) No. (%)
Cardiovascular death, Subjects with Event/100 Patient-Yr (No T2DM (N = 1298)): 5.5 Event/100 Patient-Yr
Death from any cause, No. (%) (No T2DM (N = 1298)): 133 (10.3) No. (%)
Death from any cause, Subjects with Event/100 Patient-Yr (No T2DM (N = 1298)): 6.9 Event/100 Patient-Yr
Hospitalization for heart failure or an urgent heart failure visit, No. (%) (No T2DM (N = 1298)): 95 (7.3) No. (%)
Hospitalization for heart failure or an urgent heart failure visit, Subjects with Event/100 Patient-Yr (No T2DM (N = 1298)): 5.1 Event/100 Patient-Yr
Hospitalization for heart failure, No. (%) (No T2DM (N = 1298)): 93 (7.2) No. (%)
Hospitalization for heart failure, Subjects with Event/100 Patient-Yr (No T2DM (N = 1298)): 5.0 Event/100 Patient-Yr
Primary composite outcome, No. (%) (No T2DM (N = 1298)): 171 (13.2) No. (%)
Primary composite outcome, Subjects with Event/100 Patient-Yr (No T2DM (N = 1298)): 9.2 Event/100 Patient-Yr
Total number of (first and recurrent) heart failure hospitalizations and cardiovascular death (No T2DM (N = 1298)): 239
Urgent heart failure visit, No. (%) (No T2DM (N = 1298)): 3 (0.2) No. (%)
Urgent heart failure visit, Subjects with Event/100 Patient-Yr (No T2DM (N = 1298)): 0.2 Event/100 Patient-Yr
Worsening renal function (composite), No. (%) (No T2DM (N = 1298)): 10 (0.8) No. (%)
Worsening renal function (composite), Subjects with Event/100 Patient-Yr (No T2DM (N = 1298)): 0.5 Event/100 Patient-Yr
Cardiovascular death or hospitalization for heart failure, No. (%) (T2DM (N = 1075)): 213 (19.8) No. (%)
Cardiovascular death or hospitalization for heart failure, Subjects with Event/100 Patient-Yr (T2DM (N = 1075)): 14.4 Event/100 Patient-Yr
Cardiovascular death, No. (%) (T2DM (N = 1075)): 121 (11.3) No. (%)
Cardiovascular death, Subjects with Event/100 Patient-Yr (T2DM (N = 1075)): 7.7 Event/100 Patient-Yr
Death from any cause, No. (%) (T2DM (N = 1075)): 143 (13.3) No. (%)
Death from any cause, Subjects with Event/100 Patient-Yr (T2DM (N = 1075)): 9.1 Event/100 Patient-Yr
Hospitalization for heart failure or an urgent heart failure visit, No. (%) (T2DM (N = 1075)): 142 (13.2) No. (%)
Hospitalization for heart failure or an urgent heart failure visit, Subjects with Event/100 Patient-Yr (T2DM (N = 1075)): 9.6 Event/100 Patient-Yr
Hospitalization for heart failure, No. (%) (T2DM (N = 1075)): 138 (12.8) No. (%)
Hospitalization for heart failure, Subjects with Event/100 Patient-Yr (T2DM (N = 1075)): 9.3 Event/100 Patient-Yr
Primary composite outcome, No. (%) (T2DM (N = 1075)): 215 (20.0) No. (%)
Primary composite outcome, Subjects with Event/100 Patient-Yr (T2DM (N = 1075)): 14.6 Event/100 Patient-Yr
Total number of (first and recurrent) heart failure hospitalizations and cardiovascular death (T2DM (N = 1075)): 328
Urgent heart failure visit, No. (%) (T2DM (N = 1075)): 7 (0.7) No. (%)
Urgent heart failure visit, Subjects with Event/100 Patient-Yr (T2DM (N = 1075)): 0.4 Event/100 Patient-Yr
Worsening renal function (composite), No. (%) (T2DM (N = 1075)): 18 (1.7) No. (%)
Worsening renal function (composite), Subjects with Event/100 Patient-Yr (T2DM (N = 1075)): 1.2 Event/100 Patient-Yr
Cardiovascular death or hospitalization for heart failure, Events/100 Patient-Yr (all patients (N = 2373)): 11.4 Events/100 Patient-Yr
Cardiovascular death or hospitalization for heart failure, No. (%) (all patients (N = 2373)): 382 (16.1) No. (%)
Cardiovascular death, Events/100 Patient-Yr (all patients (N = 2373)): 6.5 Events/100 Patient-Yr
Cardiovascular death, No. (%) (all patients (N = 2373)): 227 (9.6) No. (%)
Death from any cause, Events/100 Patient-Yr (all patients (N = 2373)): 7.9 Events/100 Patient-Yr
Death from any cause, No. (%) (all patients (N = 2373)): 276 (11.6) No. (%)
Hospitalization for heart failure or an urgent heart failure visit, Events/100 Patient-Yr (all patients (N = 2373)): 7.1 Events/100 Patient-Yr
Hospitalization for heart failure or an urgent heart failure visit, No. (%) (all patients (N = 2373)): 237 (10.0) No. (%)
Hospitalization for heart failure, Events/100 Patient-Yr (all patients (N = 2373)): 6.9 Events/100 Patient-Yr
Hospitalization for heart failure, No. (%) (all patients (N = 2373)): 231 (9.7) No. (%)
Primary composite outcome, Events/100 Patient-Yr (all patients (N = 2373)): 11.6 Events/100 Patient-Yr
Total number of (first and recurrent) heart failure hospitalizations and cardiovascular death (all patients (N = 2373)): 567
Urgent heart failure visit, Events/100 Patient-Yr (all patients (N = 2373)): 0.3 Events/100 Patient-Yr
Urgent heart failure visit, No. (%) (all patients (N = 2373)): 10 (0.4) No. (%)
Worsening renal function (composite), Events/100 Patient-Yr (all patients (N = 2373)): 0.8 Events/100 Patient-Yr
